Measurements as given in patent US20090137637A1, “Tetrazolyl-Methylene Amino Acid Derivatives” (PFIZER INC., priority 2005, published 2009).
Values after ≈ are worked out from the molar mass of the structure shown.

Legend:
[1] = Solubility in pH 6.5 aqueous phosphate buffer (Chemical Method 1, PDS solubility); assay type: physicochemical; settings: thermodynamic from solid; saturated solution in pH 6.5 aqueous phosphate buffer, 5% glyme, UV-visible absorbance
Procedure: Solubility of a test compound of the present invention refers to solubility of the compound in a solvent mixture containing ethylene glycol dimethylether (“glyme”) and pH 6.5 aqueous phosphate buffer. The solubility was determined by measuring ultraviolet-visible absorbance of a saturated solution of the compound and comparing the absorbance value to absorbance values obtained for four standard solutions of the compound having known concentrations plotted on a 4-point ultraviolet-visible standard curve.
First, a saturated solution of the test compound of the present invention was prepared by adding from about 2- to about 5-mg of the compound to a 96-well plate and adding a volume of pH 6.5 aqueous phosphate buffer, sonicating the mixture for about 10 minutes, and then allowing it to equilibrate overnight (typically 12 to 24 hours). The saturated solution was visually inspected to ensure the presence of particles, and then filtered to give a filtrate of the saturated solution. The filtrate of the saturated solution and a blank (pH 6.5 aqueous phosphate buffer containing no test compound) were then transferred into separate wells in a 96-well UV-transparent disposable plate, and a small amount of glyme was added to each well to give 5% glyme concentration per well.
Standard solutions of the test compound were prepared by dissolving a known amount of the test compound in a known volume of 75/25 volume/volume (“v/v”) glyme/water, and diluting this solution into four different concentrations in 96-well plates with additional 75/25 v/v glyme/water. Then, aliquots from each of the four standard solutions were also transferred to the 96-well UV-transparent disposable plate containing pH 6.5 aqueous phosphate buffer until the glyme concentration in each well was 5%.
The prepared 96-well plate was transferred to a 96-well ultraviolet-visible plate reader, and the wells were scanned over wavelengths of from 220 nm to 350 nm with a step size of 2 nm. The ultraviolet-visible data (i.e., data generated at the same wavelength) were electronically exported to a spreadsheet and absorbance data for the filtrate of the saturated solution measured at one wavelength (i.e., the data that had the best linear fit as calculated by the highest regression coefficient, typically 0.98 or higher) and the corresponding standards absorbance data measured at the same wavelength were plotted as a standard absorbance-concentration curve based on the Lambert-Beer law. The solubility (i.e., saturation concentration) was then back calculated by comparing the absorbance of the filtrate of the saturated solution to the absorbance of the standard solutions of known concentrations at the same wavelength.

[2] = target: MMP-13 catalytic domain (MMP-13CD) (Homo sapiens, UniProt P45452); test: Thiopeptolide hydrolysis inhibition assay, MMP-13 catalytic domain; assay type: biochemical; settings: thiopeptolide substrate, HEPES pH 7.0, 22° C.
From the text: (§1) In general, the MMP inhibition assays measure the amount by which a test compound reduces the hydrolysis of a thiopeptolide substrate catalyzed by a matrix metalloproteinase enzyme. Such assays are described in detail by Ye et al., in Biochemistry, 1992;31(45):11231-11235, which is incorporated herein by reference.
Some of the particular methods described below use the catalytic domain of the MMP-13 enzyme, namely matrix metalloproteinase-13 catalytic domain (“MMP-13CD”), rather than the corresponding full-length enzyme, MMP-13. It has been shown previously by Ye Qi-Zhuang, Hupe D., and Johnson L. (Current Medicinal Chemistry, 1996;3:407418) that inhibitor activity against a catalytic domain of an MMP is predictive of the inhibitor activity against the respective full-length MMP enzyme.
(§2) Thiopeptolide substrates show virtually no decomposition or hydrolysis at or below neutral pH in the absence of a matrix metalloproteinase enzyme. A typical thiopeptolide substrate commonly utilized for assays is Ac-Pro-Leu-Gly-thioester-Leu-Leu-Gly-OEt. A 100 μL assay mixture will contain 50 mM of N-2-hydroxyethylpiperazine-N′-2-ethanesulfonic acid buffer (“HEPES,” pH 7.0), 10 mM CaCl2, 100 μM thiopeptolide substrate, and 1 mM 5,5′-dithio-bis-(2-nitro-benzoic acid) (DTNB). The thiopeptolide substrate concentration may be varied, for example from 10 to 800 μM to obtain Km and Kcat values. The change in absorbance at 405 nm is monitored on a Thermo Max microplate reader (molecular Devices, Menlo Park, Calif.) at room temperature (22° C.). The calculation of the amount of hydrolysis of the thiopeptolide substrate is based on E412=13600 M^−1 cm^−1 for the DTNB-derived product 3-carboxy-4-nitrothiophenoxide. Assays are carried out with and without matrix metalloproteinase inhibitor compounds, and the amount of hydrolysis is compared for a determination of inhibitory activity of the test compounds.
(§3) Test compounds were evaluated at various concentrations in order to determine their respective IC50 values, the micromolar concentration of compound required to cause a 50% inhibition of catalytic activity of the respective enzyme.

MMP-1 full-length = target: T1, MMP-1 full-length (Homo sapiens, UniProt P03956); test: Thiopeptolide hydrolysis inhibition assay, MMP-1 full-length; assay type: biochemical; settings: thiopeptolide substrate; read-out: MMP-1FL IC50
T1 construct: have been assayed with MMP-1 full-length
T1 sequence (P03956 100-469): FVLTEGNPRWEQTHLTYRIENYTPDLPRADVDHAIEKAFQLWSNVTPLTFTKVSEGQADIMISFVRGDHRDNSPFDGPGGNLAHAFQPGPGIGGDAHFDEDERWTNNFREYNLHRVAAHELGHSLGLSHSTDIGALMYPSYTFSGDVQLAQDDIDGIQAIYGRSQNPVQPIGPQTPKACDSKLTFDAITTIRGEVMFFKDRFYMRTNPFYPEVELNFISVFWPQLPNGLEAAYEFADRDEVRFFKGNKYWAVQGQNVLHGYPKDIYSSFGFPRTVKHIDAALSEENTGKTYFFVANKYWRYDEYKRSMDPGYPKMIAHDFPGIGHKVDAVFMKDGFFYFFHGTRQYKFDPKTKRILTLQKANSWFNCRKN
From the text: as §1, §2, §3
(§4) The test described above for the inhibition of MMP-13 may also be adapted and used to determine the ability of the compounds of formula (I) to inhibit the matrix metalloproteases MMP-1, MMP-2, MMP-3, MMP-7, MMP-9, MMP-12, MMP-14, and MMP-17.
(§5) Certain compounds of formula (I) have been assayed with MMP-1 full-length, MMP-2 full-length, MMP-3 catalytic domain, MMP-7 full-length, MMP-8 catalytic domain, MMP-9 full-length, and MMP-12 catalytic domain.

MMP-2 full-length = target: T2, MMP-2 full-length (Homo sapiens, UniProt P08253); test: Thiopeptolide hydrolysis inhibition assay, MMP-2 full-length; assay type: biochemical; settings: thiopeptolide substrate; read-out: MMP-2FL IC50
T2 construct: MMP-2 full-length
T2 sequence (P08253 110-660): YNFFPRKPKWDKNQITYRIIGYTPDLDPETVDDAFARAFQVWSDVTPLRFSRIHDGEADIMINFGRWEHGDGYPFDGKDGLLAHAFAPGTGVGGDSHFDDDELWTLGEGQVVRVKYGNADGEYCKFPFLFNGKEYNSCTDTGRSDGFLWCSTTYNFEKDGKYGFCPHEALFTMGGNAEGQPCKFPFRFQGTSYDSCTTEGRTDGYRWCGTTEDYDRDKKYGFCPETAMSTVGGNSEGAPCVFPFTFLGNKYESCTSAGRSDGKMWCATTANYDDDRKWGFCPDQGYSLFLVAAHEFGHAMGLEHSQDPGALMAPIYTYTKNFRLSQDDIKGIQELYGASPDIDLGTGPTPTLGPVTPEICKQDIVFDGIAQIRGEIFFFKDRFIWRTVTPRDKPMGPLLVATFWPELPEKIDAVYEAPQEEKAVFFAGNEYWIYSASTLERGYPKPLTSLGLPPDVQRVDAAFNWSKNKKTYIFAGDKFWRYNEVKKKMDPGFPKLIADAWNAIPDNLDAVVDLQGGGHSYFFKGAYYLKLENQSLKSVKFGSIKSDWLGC
From the text: as §1, §2, §3, §4, §5

MMP-3 catalytic domain = target: T3, MMP-3 catalytic domain (Homo sapiens, UniProt P08254); test: Thiopeptolide hydrolysis inhibition assay, MMP-3 catalytic domain; assay type: biochemical; settings: thiopeptolide substrate, MES pH 6.0; read-out: MMP-3CD IC50
T3 construct: MMP-3 catalytic domain
From the text: as §1, §2, §3
The assay buffer used with MMP-3CD was 50 mM N-morpholinoethane sulfonate (“MES”) at pH 6.0 rather than the HEPES buffer at pH 7.0 described above.
The test described above for the inhibition of MMP-13 may also be adapted and used to determine the ability of the compounds of formula (I) to inhibit the matrix metalloproteases MMP-1, MMP-2, MMP-3, MMP-7, MMP-9, MMP-12, MMP-14, and MMP-17. […]

MMP-7 full-length = target: T4, MMP-7 full-length (Homo sapiens, UniProt P09237); test: Thiopeptolide hydrolysis inhibition assay, MMP-7 full-length; assay type: biochemical; settings: thiopeptolide substrate; read-out: MMP-7FL IC50
T4 construct: MMP-7 full-length
T4 sequence (P09237 95-267): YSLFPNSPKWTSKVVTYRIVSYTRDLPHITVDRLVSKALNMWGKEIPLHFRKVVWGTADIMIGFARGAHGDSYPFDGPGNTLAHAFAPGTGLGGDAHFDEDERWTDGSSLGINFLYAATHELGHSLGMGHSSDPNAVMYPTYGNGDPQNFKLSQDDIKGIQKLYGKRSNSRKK
From the text: as §1, §2, §3, §4, §5

MMP-8 catalytic domain = target: T5, MMP-8 catalytic domain (Homo sapiens, UniProt P22894); test: Thiopeptolide hydrolysis inhibition assay, MMP-8 catalytic domain; assay type: biochemical; settings: thiopeptolide substrate; read-out: MMP-8CD IC50
T5 construct: MMP-8 catalytic domain
From the text: as §1, §2, §3, §5

MMP-9 full-length = target: T6, MMP-9 full-length (Homo sapiens, UniProt P14780); test: Thiopeptolide hydrolysis inhibition assay, MMP-9 full-length; assay type: biochemical; settings: thiopeptolide substrate; read-out: MMP-9FL IC50
T6 construct: MMP-9 full-length
From the text: as §1, §2, §3, §4, §5

MMP-12 catalytic domain = target: T7, MMP-12 catalytic domain (Homo sapiens, UniProt P39900); test: Thiopeptolide hydrolysis inhibition assay, MMP-12 catalytic domain; assay type: biochemical; settings: thiopeptolide substrate; read-out: MMP-12CD IC50
T7 construct: MMP-12 catalytic domain
From the text: as §1, §2, §3, §4, §5

T3 sequence (P08254 100-272 limits assumed, species assumed): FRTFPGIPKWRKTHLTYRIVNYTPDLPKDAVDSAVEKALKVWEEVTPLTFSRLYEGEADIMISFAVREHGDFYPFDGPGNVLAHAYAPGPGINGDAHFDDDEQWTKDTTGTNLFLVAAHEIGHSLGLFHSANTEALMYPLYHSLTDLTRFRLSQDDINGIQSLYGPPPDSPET
T5 sequence (P22894 100-262 limits assumed, species assumed): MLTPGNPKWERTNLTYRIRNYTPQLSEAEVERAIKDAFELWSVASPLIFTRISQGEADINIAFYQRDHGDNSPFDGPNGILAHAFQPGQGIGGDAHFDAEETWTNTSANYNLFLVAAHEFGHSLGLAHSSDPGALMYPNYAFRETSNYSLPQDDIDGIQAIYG
T7 sequence (P39900 106-263 limits assumed, species assumed): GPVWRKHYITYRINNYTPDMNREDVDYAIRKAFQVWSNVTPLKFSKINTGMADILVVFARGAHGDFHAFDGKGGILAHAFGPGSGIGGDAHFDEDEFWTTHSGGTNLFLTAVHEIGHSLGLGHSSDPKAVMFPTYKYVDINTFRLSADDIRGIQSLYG
T6 sequence (P14780 94-707, species assumed): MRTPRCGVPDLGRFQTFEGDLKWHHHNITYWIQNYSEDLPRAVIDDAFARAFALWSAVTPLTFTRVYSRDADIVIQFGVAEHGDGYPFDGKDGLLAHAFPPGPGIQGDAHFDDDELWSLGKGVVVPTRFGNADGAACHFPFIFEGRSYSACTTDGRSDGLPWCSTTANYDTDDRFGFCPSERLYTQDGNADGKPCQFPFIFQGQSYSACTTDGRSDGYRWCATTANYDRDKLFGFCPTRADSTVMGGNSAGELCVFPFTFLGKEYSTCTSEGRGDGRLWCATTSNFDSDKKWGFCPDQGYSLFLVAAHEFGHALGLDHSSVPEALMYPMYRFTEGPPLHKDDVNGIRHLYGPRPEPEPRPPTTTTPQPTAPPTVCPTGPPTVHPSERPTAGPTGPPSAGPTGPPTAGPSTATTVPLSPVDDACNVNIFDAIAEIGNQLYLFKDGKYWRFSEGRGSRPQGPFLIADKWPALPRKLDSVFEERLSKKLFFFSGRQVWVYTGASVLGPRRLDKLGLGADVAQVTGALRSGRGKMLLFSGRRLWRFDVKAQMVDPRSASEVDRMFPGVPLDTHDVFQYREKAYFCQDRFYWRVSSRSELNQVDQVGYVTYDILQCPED

Structure (SMILES)	solubility [1]	IC50 [2]	IC50 (MMP-1 full-length)	IC50 (MMP-2 full-length)	IC50 (MMP-3 catalytic domain)	IC50 (MMP-7 full-length)	IC50 (MMP-8 catalytic domain)	IC50 (MMP-9 full-length)	IC50 (MMP-12 catalytic domain)
Cc1cc(-c2nnn(CC(=O)NCC(=O)O)n2)cc(C(=O)NCc2ccc(F)cc2)n1 [Example 1, (2-{5-[2-(4-fluoro-benzylcarbamoyl)-6-methyl-pyridin-4-yl]-tetrazol-2-yl}-acetylamino)-acetic acid]	580 µg/mL (≈ 1360 µM)	0.041 µM	> 100 µM	> 100 µM	> 100 µM	> 100 µM	> 100 µM	> 100 µM	> 100 µM
Cc1cc(-c2nnn(CC(=O)NCCC(=O)O)n2)cc(C(=O)NCc2ccc(F)cc2)n1 [Example 2, 3-(2-{5-[2-(4-Fluoro-benzylcarbamoyl)-6-methyl-pyridin-4-yl]-tetrazol-2-yl}-acetylamino)-propionic acid]	220 µg/mL (≈ 498 µM)	0.039 µM	> 100 µM	75 µM	> 100 µM	> 100 µM	> 100 µM	> 100 µM	> 100 µM
Cc1cc(-c2nnn(CC(=O)N3CCCC3C(=O)O)n2)cc(C(=O)NCc2ccc(F)cc2)n1 (stereo not drawn) [Example 3]	1200 µg/mL (≈ 2570 µM)	1.5 µM	–	–	–	–	–	–	–
O=C(O)C1CCCN(CCCn2nnc(-c3cccc(C#CCc4ccc(F)cc4)c3)n2)C1 (stereo not drawn) [Example 4]	–	5.2 µM	> 100 µM	> 100 µM	> 100 µM	> 100 µM	> 100 µM	> 100 µM	> 100 µM
Cc1cc(-c2nnn(CC(=O)O)n2)cc(C(=O)NCc2ccc(F)cc2)n1 [Example I2, {5-[2-(4-fluoro-benzylcarbamoyl)-6-methyl-pyridin-4-yl]-tetrazol-2-yl}-acetic acid]	880 µg/mL (≈ 2380 µM)	4.5 µM	–	–	–	–	–	–	–
